Reference: patent US7998978B2 (Pfizer Inc., priority 2006, dated 2011)

These compounds were tested against T1, JNK1α1 (Homo sapiens, UniProt P45983) (assay: Coupled spectrophotometric (PK/LDH) JNK1α1 assay: % inhibition and Ki determination). Settings: @1 uM; read-out: % Inhibition JNK-1.
T1 construct: catalytic domain containing amino acids 1-364 and N-terminal hexahistidine tag; hexahistidine (His6) (N); made in house; host or cells: E. coli BL21 (DE3)
Format: biochemical
Method in brief: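 Initial rates were taken from the absorbance decrease at 340 nm at 30° C. Ki was fitted with a tight-binding model over 11 concentrations (top 100 μM); single-point inhibition was tested at 1 or 10 μM.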

T1 sequence (P45983 1-364): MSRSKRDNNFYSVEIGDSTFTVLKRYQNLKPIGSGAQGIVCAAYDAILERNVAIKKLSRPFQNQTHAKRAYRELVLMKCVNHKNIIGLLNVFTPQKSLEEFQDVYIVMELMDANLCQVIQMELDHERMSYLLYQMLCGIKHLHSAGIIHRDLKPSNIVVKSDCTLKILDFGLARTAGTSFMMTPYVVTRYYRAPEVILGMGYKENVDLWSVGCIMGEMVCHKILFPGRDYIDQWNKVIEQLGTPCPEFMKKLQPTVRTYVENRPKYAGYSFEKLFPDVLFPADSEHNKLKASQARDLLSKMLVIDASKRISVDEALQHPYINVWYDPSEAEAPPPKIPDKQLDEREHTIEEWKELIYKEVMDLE

inhibition at 1 µM [%] | Structure (SMILES)
10 | O=C(NCCN1CCNC1=O)c1cccc2cnc(N[C@H]3CC[C@H](O)CC3)nc12 [Example 476, 2-[(trans-4-hydroxycyclohexyl)amino]-N-[2-(2-oxoimidazolidin-1-yl)ethyl]quinazoline-8-carboxamide]
37 | COC[C@H]1CCC[C@H]1NC(=O)c1cccc2cnc(N[C@H]3CC[C@H](O)CC3)nc12 [Example 506, 2-[(trans-4-hydroxycyclohexyl)amino]-N-[(1R,2S)-2-(methoxymethyl)cyclopentyl]quinazoline-8-carboxamide]
15 | CC(C)Nc1ncc2ccc(C(=O)NCCO)cc2n1 [Example 431, N-(2-hydroxyethyl)-2-(isopropylamino)quinazoline-7-carboxamide]
19 | CCn1ncnc1NC(=O)c1cccc2cnc(N[C@H]3CC[C@H](O)CC3)nc12 [Example 320, N-(1-ethyl-1H-1,2,4-triazol-5-yl)-2-[(trans-4-hydroxycyclohexyl)amino]quinazoline-8-carboxamide]
13 | CC(Cn1cccn1)NC(=O)c1cccc2cnc(N[C@H]3CC[C@H](O)CC3)nc12 (stereo partly drawn) [Example 482, 2-[(trans-4-hydroxycyclohexyl)amino]-N-[1-methyl-2-(1H-pyrazol-1-yl)ethyl]quinazoline-8-carboxamide]
16 | O=C(N[C@H]1CCN(C(=O)c2ccccc2)C1)c1cccc2cnc(N[C@H]3CC[C@H](O)CC3)nc12 [Example 517, N-(1-benzoylpyrrolidin-3-yl)-2-[(trans-4-hydroxycyclohexyl)amino]quinazoline-8-carboxamide]
40 | CN1CCCC(COc2ccc3cnc(N[C@H]4CC[C@H](O)CC4)nc3c2)C1 (stereo partly drawn) [Example 270, trans-4-({7-[(1-methylpiperidin-3-yl)methoxy]quinazolin-2-yl}amino)cyclohexanol]
72 | CC1(COc2ccc3cnc(N[C@H]4CC[C@H](O)CC4)nc3c2)COC1 [Example 281, trans-4-({7-[(3-methyloxetan-3-yl)methoxy]quinazolin-2-yl}amino)cyclohexanol]
52 | CCOCC(C)Oc1ccc2cnc(N[C@H]3CC[C@H](O)CC3)nc2c1 (stereo partly drawn) [Example 275, trans-4-{[7-(2-ethoxy-1-methylethoxy)quinazolin-2-yl]amino}cyclohexanol]
13 | O=C(NCCn1ccnc1)c1cccc2cnc(N[C@H]3CC[C@H](O)CC3)nc12 [Example 491, 2-[(trans-4-hydroxycycbohexyl)amino]-N-[2-(1H-imidazol-1-yl)ethyl]quinazoline-8-carboxamide]
14 | CC(COc1cccc2cnc(N[C@H]3CC[C@H](O)CC3)nc12)N(C)C (stereo partly drawn) [Example 266, trans-4-({8-[2-(dimethylamino)propoxy]quinazolin-2-yl}amino)cyclohexanol]
34 | O=C(NCc1ccncc1)c1cccc2cnc(N[C@H]3CC[C@H](O)CC3)nc12 [Example 473, 2-[(trans-4-hydroxycyclohexyl)amino]-N-(pyridin-4-ylmethyl)quinazoline-8-carboxamide]
29 | CN(C)C(C)(C)COc1ccc2cnc(N[C@H]3CC[C@H](O)CC3)nc2c1 [Example 269, trans-4-({7-[2-(dimethylamino)-2-methylpropoxy]quinazolin-2-yl}amino)cyclohexanol]

Same assay, conditions: @10 uM; read-out: % Inhibition JNK-1

inhibition at 10 µM [%] | Structure (SMILES)
44 | Cc1noc(CCNC(=O)c2cccc3cnc(N[C@H]4CC[C@H](O)CC4)nc23)n1 [Example 523, 2-[(trans-4-hydroxycyclohexyl)amino]-N-[2-(3-methyl-1,2,4-oxadiazol-5-yl)ethyl]quinazoline-8-carboxamide]
46 | CN1CCN(C)C(COc2cccc3cnc(N[C@H]4CC[C@H](O)CC4)nc23)C1 (stereo partly drawn) [Example 264, trans-4-({8-[(1,4-dimethylpiperazin-2-yl)methoxy]quinazolin-2-yl}amino)cyclohexanol]
50 | O=C(NCCN1CCCCC1=O)c1cccc2cnc(N[C@H]3CC[C@H](O)CC3)nc12 [Example 486, 2-[(trans-4-hydroxycyclohexyl)amino]-N-[2-(2-oxopiperidin-1-yl)ethyl]quinazoline-8-carboxamide]
41 | CN1CC(CNC(=O)c2cccc3cnc(N[C@H]4CC[C@H](O)CC4)nc23)OCC1=O (stereo partly drawn) [Example 525, 2-[(trans-4-hydroxycyclohexyl)amino]-N-[(4-methyl-5-oxomorpholin-2-yl)methyl]quinazoline-8-carboxamide]

Same assay, conditions: JNK-1

Ki [nM] | Structure (SMILES)
1910 | c1cc(OC2CCOC2)c2nc(NC3CCOCC3)ncc2c1 (stereo not shown) [Example 173, 8-(tetrahydrofuran-3-yloxy)-N-(tetrahydro-2H-pyran-4-yl)quinazolin-2-amine]
420 | Oc1cccc2cnc(N[C@H]3CC[C@H](O)CC3)nc12 [Example 152, 2-[(trans-4-hydroxycyclohexyl)amino]quinazolin-8-ol]
22 | O=C(CCc1cncnc1)Nc1cc2cc(-c3cn[nH]c3)ccc2cn1 [Example 29, N-[6-(1H-pyrazol-4-yl)isoquinolin-3-yl]-3-pyrimidin-5-ylpropanamide]
520 | O=C(Nc1nccc(O)n1)c1cccc2cnc(N[C@H]3CC[C@H](O)CC3)nc12 [Example 125, 2-[(trans-4-hydroxycyclohexyl)amino]-N-(4-hydroxypyrimidin-2-yl)quinazoline-8-carboxamide]
914 | N[C@H]1CC[C@H](Nc2ncc3cccc(OC4CCOC4)c3n2)CC1 (stereo partly drawn) [Example 177, trans-N-[8-(tetrahydrofuran-3-yloxy)quinazolin-2-yl]cyclohexane-1,4-diamine]
410 | CN(C)c1ncccc1NC(=O)c1ccc2cnc(N[C@H]3CC[C@H](O)CC3)nc2c1 [Example 331, N-[2-(dimethylamino)pyridin-3-yl]-2-[(trans-4-hydroxycyclohexyl)amino]quinazoline-7-carboxamide]
156 | O[C@H]1CC[C@H](Nc2ncc3ccc(OCC4CCOC4)cc3n2)CC1 (stereo partly drawn) [Example 155, trans-4-{[7-(tetrahydrofuran-3-ylmethoxy)quinazolin-2-yl]amino}cyclohexanol]
3 | CC(C)(C)OC(=O)NC(CC(=O)Nc1cc2cc(-c3cn[nH]c3)ccc2cn1)c1c(F)cccc1F (stereo not shown) [Example 31, tert-butyl (1-(2,6-difluorophenyl)-3-oxo-3-{[6-(1H-pyrazol-4-yl)isoquinolin-3-yl]amino}propyl)carbamate]
1550 | CNC(=O)c1cccc2cnc(N[C@H]3CC[C@H](O)CC3)nc12 [Example 114, 2-[(trans-4-hydroxycyclohexyl)amino]-N-methylquinazoline-8-carboxamide]
963 | O=C(NC1CCOC1)c1ccc2cnc(N[C@H]3CC[C@H](O)CC3)nc2c1 (stereo partly drawn) [Example 347, 2-[(trans-4-hydroxycyclohexyl)amino]-N-(tetrahydrofuran-3-yl)quinazoline-7-carboxamide]
257 | O=C(N[C@H](CO)c1ccccc1)c1ccc2cnc(NC3CCCC3)nc2c1 [Example 384, 2-(cyclopentylamino)-N-[(1S)-2-hydroxy-1-phenylethyl]quinazoline-7-carboxamide]
377 | O=C(NC1CCS(=O)(=O)C1)c1cccc2cnc(N[C@H]3CC[C@H](O)CC3)nc12 (stereo partly drawn) [Example 119, N-(1,1-dioxidotetrahydro-3-thienyl)-2-[(trans-4-hydroxycyclohexyl)amino]quinazoline-8-carboxamide]
254 | O=C(NCC1(O)CCCCC1)c1ccc2cnc(N[C@H]3CC[C@H](O)CC3)nc2c1 [Example 327, 2-[(trans-4-hydroxycyclohexyl)amino]-N-[(1-hydroxycyclohexyl)methyl]quinazoline-7-carboxamide]
674 | CC(=O)N[C@H]1CC[C@H](Nc2ncc3cccc(OC4CCOC4)c3n2)CC1 (stereo partly drawn) [Example 184, N-(trans-4-{[8-(tetrahydrofuran-3-yloxy)quinazolin-2-yl]amino}cyclohexyl)acetamide]
77 | COc1ccc2[nH]c(C)c(CC(=O)Nc3cc4cc(-c5cn[nH]c5)ccc4cn3)c2c1 [Example 2, 2-(5-methoxy-2-methyl-1H-indol-3-yl)-N-[6-(1H-pyrazol-4-yl)isoquinolin-3-yl]acetamide]
74 | O=C(N[C@H](CO)c1ccccc1)c1ccc2cnc(N[C@H]3CC[C@H](O)CC3)nc2c1 [Example 95, 2-[(trans-4-hydroxycyclohexyl)amino]-N-[(1S)-2-hydroxy-1-phenylethyl]quinazoline-7-carboxamide]
261 | CNC(=O)c1ccc2cnc(N[C@H]3CC[C@H](O)CC3)nc2c1 [Example 58, 2-[(trans-4-hydroxycyclohexyl)amino]-N-methylquinazoline-7-carboxamide]
25 | O=C(Cc1ccc(Oc2ccnc3ccsc23)cc1)Nc1cc2cc(-c3cn[nH]c3)ccc2cn1 [Example 24, N-[6-(1H-pyrazol-4-yl)isoquinolin-3-yl]-2-[4-(thieno[3,2-b]pyridin-7-yloxy)phenyl]acetamide]
1230 | O=C(NCc1nc2cc(F)ccc2[nH]1)c1ccc2cnc(N[C@H]3CC[C@H](O)CC3)nc2c1 [Example 354, N-[(5-fluoro-1H-benzimidazol-2-yl)methyl]-2-[(trans-4-hydroxycyclohexyl)amino]quinazoline-7-carboxamide]
460 | c1ccc2nc(NC3CCCCC3)ncc2c1 [Example 147]
234 | O[C@H]1CC[C@H](Nc2ncc3cccc(OCC(F)(F)F)c3n2)CC1 [Example 244, trans-4-{[8-(2,2,2-trifluoroethoxy)quinazolin-2-yl]amino}cyclohexanol]
962 | O=C(N[C@H]1CC[C@@H](CO)CC1)c1cccc2cnc(N[C@H]3CC[C@H](O)CC3)nc12 [Example 466, 2-[(trans-4-hydroxycyclohexyl)amino]-N-[cis-4-(hydroxymethyl)cyclohexyl]quinazoline-8-carboxamide]
32 | COC1CCC(C(=O)Nc2cc3cc(-c4cn[nH]c4)ccc3cn2)CC1 (stereo not shown) [Example 28, 4-methoxy-N-[6-(1H-pyrazol-4-yl)isoquinolin-3-yl]cyclohexanecarboxamide]
